The target of experiment [1] is T1, Bcl-XL (Homo sapiens, UniProt Q07817).
T1 construct: a C-terminal 6×HIS tagged Bcl-XL (aa 1-209); 6xHis (C)
Put plainly: Bcl-XL FP assay (competitive fluorescence polarization binding assay, FITC-Bim BH-3 peptide tracer). The conditions noted are these: C-terminal 6×HIS tagged Bcl-XL (aa 1-209), 0.8 nM; 2 nM FITC-Bim peptide tracer. The text has this: (§1) Bcl-xL and Bcl-2 FP binding affinity of compound(s) of Formulae (I), (I-a), (I-b), (I-c), (I-d) and/or (I-e) may be determined using a variety of known methods. One such assay is a sensitive and quantitative in vitro binding assay using fluorescence polarization (“FP”) described by Wang, J.-L.; Zhang, Z-J.; Choksi, S.; Sjam. S.; Lu, Z.; Croce, C. M.; Alnemri, E. S.; Komgold, R.; Huang, Z. Cell permeable Bcl-2 binding peptides: a chemical approach to apoptosis induction in tumor cells. Cancer Res. 2000, 60, 1498-1502).
(§2) Additionally, the binding affinity of compound(s) of Formulae (I), (I-a), (I-b), (I-c), (I-d) and/or (I-e) to Bcl-2 protein in vitro was determined by a competitive binding assay based on fluorescence polarization. For example, fluorescence polarization (“FP”) assays may be developed using a c-terminal 6×HIS tagged Bcl-2 (aa 1-204) and a C-terminal 6×HIS tagged Bcl-XL (aa 1-209). […] Dilutions of either Bcl-2 (1.3 nM) or Bcl-XL (0.8 nM) may be added to serial dilutions of antagonist and incubated for one hour prior to the addition of 2 nM of fluorescent peptide tracer (Anaspec, Fremont, Calif.) in the assay buffer. Final assay buffer conditions may be 20 mM HEPES, pH 7.5, 1 mM DTT, 0.005% Tween-20 and 50 mM NaCl. Samples may be read after 20-minute incubation. Fluorescence polarization values may be plotted as a function of the antagonist concentration.

The target in experiment [2] is T2, Bcl-2 (Homo sapiens, UniProt P10415).
T2 construct: a c-terminal 6×HIS tagged Bcl-2 (aa 1-204); 6xHis (C)
T2 sequence (P10415 1-204): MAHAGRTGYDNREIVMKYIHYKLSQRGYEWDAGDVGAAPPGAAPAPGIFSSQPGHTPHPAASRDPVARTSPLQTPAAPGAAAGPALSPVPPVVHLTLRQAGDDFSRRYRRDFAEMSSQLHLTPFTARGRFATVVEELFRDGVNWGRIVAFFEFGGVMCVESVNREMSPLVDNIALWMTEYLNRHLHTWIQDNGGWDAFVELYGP
Briefly: Bcl-2 FP assay (competitive fluorescence polarization binding assay, FITC-Bim BH-3 peptide tracer). To be noted: c-terminal 6×HIS tagged Bcl-2 (aa 1-204), 1.3 nM; 2 nM FITC-Bim peptide tracer.
Excerpt: as §1, §2
A general note: Fluorescence polarisation rises when a labelled molecule tumbles more slowly, as on binding a larger partner.

Each structure is given as a SMILES string. Structures can show the parent of a compound that is named as a salt.

T1 sequence (Q07817 1-209): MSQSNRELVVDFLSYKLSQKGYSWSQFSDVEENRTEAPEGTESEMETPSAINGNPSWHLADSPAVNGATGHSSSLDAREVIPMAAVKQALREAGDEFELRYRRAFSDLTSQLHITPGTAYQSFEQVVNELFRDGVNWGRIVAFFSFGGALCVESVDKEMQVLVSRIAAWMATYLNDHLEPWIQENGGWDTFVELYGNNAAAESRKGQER

For `N[C@@H](c1ccccc1-c1ccc(Cl)cc1)C1CCN(c2ccc(C(=O)NS(=O)(=O)c3ccc(N[C@H](CCN4CCN(CCO)CC4)CSc4ccccc4)c(S(=O)(=O)C(F)(F)F)c3)cc2)CC1` [Example 13, 4-(4-((R)-amino(4′-chlorobiphenyl-2-yl)methyl)piperidin-1-yl)-N-(4-((R)-4-(4-(2-hydroxyethyl)piperazin-1-yl)-1-(phenylthio)butan-2-ylamino)-3-(trifluoromethylsulfonyl)phenylsulfonyl)benzamide, formic acid salt], the IC50 (as a rule, the concentration needed to halve the response being measured) in experiment [1] was found to be 15 nM; in experiment [2] it was 16 nM.

Consider `O=C(NS(=O)(=O)c1ccc(N[C@H](CCN2CCOCC2)CSc2ccccc2)c(S(=O)(=O)C(F)(F)F)c1)c1ccc(N2CCC([C@H](O)c3ccccc3-c3ccc(Cl)cc3)CC2)cc1` [Example 14, 4-(4-((S)-(4′-chlorobiphenyl-2-yl)(hydroxy)methyl)piperidin-1-yl)-N-(4-((R)-4-morpholino-1-(phenylthio)butan-2-ylamino)-3-(trifluoromethylsulfonyl)phenylsulfonyl)benzamide], for which the values for the IC50 in experiment [1] and in experiment [2] were 78 nM and 253 nM, respectively.

As for `O=C(NS(=O)(=O)c1ccc(N[C@H](CCN2CCOCC2)CSc2ccccc2)c(S(=O)(=O)C(F)(F)F)c1)c1ccc(N2CCC([C@@H](O)c3ccccc3-c3ccc(Cl)cc3)CC2)cc1` [Example 15, 4-(4-((R)-(4′-chlorobiphenyl-2-yl)(hydroxy)methyl)piperidin-1-yl)-N-(4-((R)-4-morpholino-1-(phenylthio)butan-2-ylamino)-3-(trifluoromethylsulfonyl)phenylsulfonyl)benzamide], the IC50 in experiment [1] is 1 nM; in experiment [2] it was 3 nM.

Consider `O=C(NS(=O)(=O)c1ccc(N[C@H](CCN2CCOCC2)CSc2ccccc2)c([N+](=O)[O-])c1)c1ccc(N2CCC([C@@H](O)c3ccccc3-c3ccc(Cl)cc3)CC2)cc1` [Example 16, 4-(4-((R)-(4′-chlorobiphenyl-2-yl)(hydroxy)methyl)piperidin-1-yl)-N-(4-((R)-4-morpholino-1-(phenylthio)butan-2-ylamino)-3-nitrophenylsulfonyl)benzamide], for which the IC50 in experiment [1] is 1 nM; in experiment [2], 0.8 nM.

Take `CCN(CC)C[C@H]1COCCN1CC[C@H](CSc1ccccc1)Nc1ccc(S(=O)(=O)NC(=O)c2ccc(N3CCC([C@@H](O)c4ccccc4-c4ccc(Cl)cc4)CC3)cc2)cc1S(=O)(=O)C(F)(F)F` [Example 20, 4-(4-((R)-(4′-chlorobiphenyl-2-yl)(hydroxy)methyl)piperidin-1-yl)-N-(4-((R)-4-((S)-3-((diethylamino)methyl)morpholino)-1-(phenylthio)butan-2-ylamino)-3-(trifluoromethylsulfonyl)phenylsulfonyl)benzamide]: the values for the half-inhibitory concentration (IC50) in experiment [1] and in experiment [2] were 1 nM and 0.3 nM, respectively.

For `CCN(CC)C[C@@H]1COCCN1CC[C@H](CSc1ccccc1)Nc1ccc(S(=O)(=O)NC(=O)c2ccc(N3CCC([C@@H](O)c4ccccc4-c4ccc(Cl)cc4)CC3)cc2)cc1S(=O)(=O)C(F)(F)F` [Example 21, 4-(4-((R)-(4′-chlorobiphenyl-2-yl)(hydroxy)methyl)piperidin-1-yl)-N-(4-((R)-4-((R)-3-((diethylamino)methyl)morpholino)-1-(phenylthio)butan-2-ylamino)-3-(trifluoromethylsulfonyl)phenylsulfonyl)benzamide], the IC50 in experiment [1] stood at 0.5 nM; in experiment [2] it was 0.3 nM.

`O=C(NS(=O)(=O)c1ccc(N[C@H](CCN2CCO[C@@H](CO)C2)CSc2ccccc2)c(S(=O)(=O)C(F)(F)F)c1)c1ccc(N2CCC([C@@H](O)c3ccccc3-c3ccc(Cl)cc3)CC2)cc1` [Example 22, 4-(4-((R)-(4′-chlorobiphenyl-2-yl)(hydroxy)methyl)piperidin-1-yl)-N-(4-((R)-4-((R)-2-(hydroxymethyl)morpholino)-1-(phenylthio)butan-2-ylamino)-3-(trifluoromethylsulfonyl)phenylsulfonyl)benzamide, formic acid salt]: the IC50 was 3 nM in experiment [1] and 0.6 nM in experiment [2].

Source of the values: patent US20130310344A1, “N-ACYLSULFONAMIDE APOPTOSIS PROMOTERS” (ASTRAZENECA AB, priority 2010, published 2013).
